Test results taken from article PMC4286029 (Inflammation Research, 2014).
Structures can show the parent of a compound that is named as a salt. Blank lines part the entries; values can stand above or below the molecule they belong to.

Key:
[1] = test system: rat collagen-induced arthritis model; assay: Collagen-induced arthritis in rats; assay type: in vivo, Lewis rats; conditions: MTX 0.3 mg/kg; for effect on paw swelling / arthritis symptoms, therapeutic administration: oral once daily from day 15, JTE-052 0.1, 1, 10 mg/kg
Protocol: CIA was induced in rats as previously described with some modifications. Briefly, type II collagen (Collagen Research Center, Saitama, Japan) was dissolved in 0.01 M acetic acid at 2 mg/mL, and the solution was emulsified in an equal volume of Freund’s incomplete adjuvant (Difco Laboratories, Detroit, MI). Lewis rats were immunized with 1 mL of the emulsion (1 mg of type II collagen) via ten intradermal injections on the back under anesthesia. The rats were then challenged with 0.2 mL of the emulsion injected into the base of the tail on day 8 under anesthesia. The test drugs were given orally once daily from day 1 to day 21 (preventive administration) or from day 15 to day 28 (therapeutic administration). After arthritis induction, the hind paw volume was measured by a water displacement method using a plethysmometer (Muromachi Kikai Co. Ltd., Tokyo, Japan). On day 22 or day 29, the rats were euthanized, and their hind paws were excised and X-rayed or processed for histological evaluation. Radiographs of the right hindlimbs were taken using a microfocal cone-beam X-ray CT scanner (MCT-CB100MF; Hitachi Medical Corporation, Tokyo, Japan). The severity of bone destruction was scored on a 3-point scale ranging from 0 to 2 for the following five joints: second metatarsal—second intertarsal joint, third metatarsal—third intertarsal joint, talus—central intertarsal joint, calcaneus—fourth intertarsal joint, and astragalo—tibial joint. For histological analysis, the formalin-fixed left hindlimbs were sectioned and stained with hematoxylin and eosin. The histology of the tarsal joints was evaluated by assessing the following parameters defined in the preliminary examination: inflammatory cell infiltration, synovial cell hyperplasia, cartilage destruction, and bone destruction. The severity of each histological change was scored on a 5-point scale ranging from 0 to 4. (Score 0: normal; Score 1: minimal, solitary (and very small) lesion; Score 2: slight, focal (and small) lesion; Score 3: moderate, scattered lesion; and Score 4: severe, extensive lesion).
(§1) . The hind paw volume (a) and body weight (b) were measured periodically. Images of hematoxylin and eosin staining (c) and radiographs of hindlimbs (e) are shown. Histological change (d) and radiographical change (f) were scored. The results are expressed as mean ± SD. ^# p < 0.05, ^## p < 0.01, versus vehicle by the Steel test
as §1, with “SD. *p < 0.05, **p < 0.01, versus vehicle by Dunnett’s test.” for “SD.”

[2] = test system: IL-2 signaling (JAK1/JAK3), Stat5 phosphorylation in hPBMCs; assay: cells; conditions: Homo sapiens, 0.25 h, read-out: IC50, IL-2 cytokine signaling (JAK1/JAK3)
Protocol: (§2) hPBMCs (3 × 10^6 cells/tube) were incubated with a test compound for 30 min at 37 °C, and then treated with IL-2 (100 ng/mL), IL-6 (100 ng/mL), IL-23 (100 ng/mL), IFN-α (100 ng/mL), or GM-CSF (1 ng/mL) for an additional 15 min. To terminate the stimulation, the cells were fixed with Fixation Buffer (BD Biosciences) for 10 min at 37 °C. The fixed cells were incubated with Perm Buffer II (BD Biosciences) for 30 min on ice and then incubated with fluorochrome-labeled anti-CD3, anti-CD4, or anti-phospho-Stat antibodies for 30 min at room temperature. The cytokine-induced Stat phosphorylation was analyzed and quantified using a Cytomics FC500 (Beckman Coulter Inc., Brea, CA). In the case of IL-23 stimulation, hPBMCs were precultured with 10 μg/mL phytohemagglutinin (PHA)-M (Sigma-Aldrich Co.) for 3 days to enhance their response to IL-23.
(§3) The phosphorylation levels of Stat5 (IL-2 and GM-CSF), Stat3 (IL-6 and IL-23), or Stat1 (IFN-α) in CD3^+CD4^+ cells (IL-2, IL-23, and IFN-α) or CD3^-CD4^+ cells (IL-6 and GM-CSF) were analyzed by flow cytometry. Data are presented as percentages of mean fluorescence intensity relative to vehicle (100 %) and non-stimulated control cells (0 %). Values are mean ± SEM. Three independent experiments were performed

[3] = test system: IFN-α signaling (JAK1/Tyk2), Stat1 phosphorylation in hPBMCs; assay: cells; conditions: Homo sapiens, 0.25 h, read-out: IC50, IFN-α cytokine signaling (JAK1/Tyk2)
Protocol: as §2, §3

[4] = test system: kinases in KinaseProfiler; assay: KinaseProfiler panel as a whole (selectivity for other kinases); assay type: biochemical; conditions: concentration of 1,000 nM
Protocol: […]; The selectivity of JTE-052 for other kinases was assessed using KinaseProfiler™ (Millipore Co. Ltd.). […].

[5] = test system: IL-2-induced IFN-γ production; assay: IL-2-induced IFN-γ production in mice; assay type: in vivo, DBA/1J mice; conditions: Mus musculus, po
Protocol: DBA/1J mice were dosed once via oral gavage with compounds. At 1 or 6 h after compound administration, the mice were injected intraperitoneally with 2 μg of recombinant mouse IL-2 and 10 μg of biotinylated anti-mouse IFN-γ capture antibody. After 6 h, the mice were euthanized, and blood was collected. Serum IFN-γ was quantified using a Mouse IFN-γ In Vivo Capture Assay Set (BD Biosciences).
After 1 or 6 h, they were injected with IL-2 and anti-mouse IFN-γ capture antibody. At 6 h after the injection, blood samples were collected, and the serum IFN-γ levels were measured.

[6] = test system: rat collagen-induced arthritis model; set-up: method as in PMID 15683847; conditions: cited from earlier work

Compound: CN(Cc1cnc2nc(N)nc(N)c2n1)c1ccc(C(=O)N[C@@H](CCC(=O)O)C(=O)O)cc1 [MTX, Methotrexate hydrate]
effect on hind paw swelling and joint inflammation, preventive administration ([1]; oral once daily from day 1, JTE-052 0.1, 1, 10 mg/kg): significantly inhibited these symptoms
effect on paw swelling / arthritis symptoms, therapeutic administration [1]: did not attenuate all of these symptoms
effect on paw swelling / arthritis symptoms, therapeutic administration ([1]; listed as methotrexate): ineffective

IC50 [2]: 13 nM
IC50 [3]: 1.1 nM
Compound: N#CC[C@H](C1CCCC1)n1cc(-c2ncnc3[nH]ccc23)cn1 [Ruxolitinib, Ruxolitinib phosphate, reference compound]

Compound: C[C@@H]1CCN(C(=O)CC#N)C[C@@H]1N(C)c1ncnc2[nH]ccc12 [Tofacitinib, tofacitinib citrate, reference compound]
inhibition of other kinases in KinaseProfiler [4]: did not inhibit any of the kinases
ED50 ([5]; dosed 1 h prior to IL-2 injection): 1.1 mg/kg
ED50 ([5]; dosed 6 h prior to IL-2 injection): 13 mg/kg

Compound: C=CC[C@@H]1/C=C(\C)C[C@H](C)C[C@H](OC)[C@H]2O[C@@](O)(C(=O)C(=O)N3CCCC[C@H]3C(=O)O[C@H](/C(C)=C/[C@@H]3CC[C@@H](O)[C@H](OC)C3)[C@H](C)[C@@H](O)CC1=O)[C@H](C)C[C@@H]2OC [tacrolimus]
effect in rat collagen-induced arthritis model, administration after the onset of arthritis [6]: had no inhibitory effects
